# Source: ChEMBL document CHEMBL5291721, “A preclinical secondary pharmacology resource illuminates target-adverse drug reaction associations of marketed drugs” (Nat Commun, 2023)
# Assays:
# [1] = target: Gamma-aminobutyric acid receptor subunit alpha-1/alpha-2/beta-2/gamma-2 (Homo sapiens, UniProt P14867+P18507+P47869+P47870); format: functional, cell-based
# Histamine H1 receptor [2] = target: T1, Histamine H1 receptor (Homo sapiens, UniProt P35367); format: functional, cell-based
# Histamine H1 receptor [3] = target: T1, Histamine H1 receptor; format: functional, cell-based; remark: listed apart in the source
# [4] = target: T2, 5-hydroxytryptamine receptor 1A (Homo sapiens, UniProt P08908)
# T2 sequence (P08908 whole entry): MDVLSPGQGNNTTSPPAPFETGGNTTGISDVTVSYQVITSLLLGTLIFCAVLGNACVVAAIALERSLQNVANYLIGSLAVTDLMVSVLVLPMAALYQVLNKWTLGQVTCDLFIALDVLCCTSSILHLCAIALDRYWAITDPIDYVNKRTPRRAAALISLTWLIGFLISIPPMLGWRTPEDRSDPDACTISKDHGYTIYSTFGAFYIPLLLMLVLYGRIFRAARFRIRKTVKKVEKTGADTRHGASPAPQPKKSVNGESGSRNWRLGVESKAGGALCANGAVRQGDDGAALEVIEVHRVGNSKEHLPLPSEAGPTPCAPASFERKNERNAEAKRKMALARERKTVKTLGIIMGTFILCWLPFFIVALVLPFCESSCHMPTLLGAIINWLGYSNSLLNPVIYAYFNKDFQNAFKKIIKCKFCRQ
# [5] = target: 5-hydroxytryptamine receptor 2A (Homo sapiens, UniProt P28223)
# [6] = target: T3, Peroxisome proliferator-activated receptor gamma (Homo sapiens, UniProt P37231); format: functional
# T3 sequence (P37231 whole entry): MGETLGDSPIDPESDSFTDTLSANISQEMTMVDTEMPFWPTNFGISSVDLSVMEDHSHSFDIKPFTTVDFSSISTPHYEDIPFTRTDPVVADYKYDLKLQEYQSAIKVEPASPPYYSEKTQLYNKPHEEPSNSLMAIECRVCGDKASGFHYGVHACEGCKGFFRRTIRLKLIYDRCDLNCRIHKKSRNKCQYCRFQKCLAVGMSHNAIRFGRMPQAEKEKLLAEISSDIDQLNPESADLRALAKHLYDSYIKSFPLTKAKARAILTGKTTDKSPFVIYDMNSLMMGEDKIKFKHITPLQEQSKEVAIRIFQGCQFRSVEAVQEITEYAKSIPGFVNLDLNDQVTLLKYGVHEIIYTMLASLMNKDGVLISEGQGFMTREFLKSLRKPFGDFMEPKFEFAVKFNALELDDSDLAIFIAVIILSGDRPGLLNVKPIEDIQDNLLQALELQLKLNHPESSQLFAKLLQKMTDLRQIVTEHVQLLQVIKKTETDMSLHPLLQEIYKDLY
# [7] = target: T3, Peroxisome proliferator-activated receptor gamma; format: functional; remark: listed apart in the source
# B1 bradykinin receptor = target: T4, B1 bradykinin receptor (Homo sapiens, UniProt P46663)
# T4 sequence (P46663 whole entry): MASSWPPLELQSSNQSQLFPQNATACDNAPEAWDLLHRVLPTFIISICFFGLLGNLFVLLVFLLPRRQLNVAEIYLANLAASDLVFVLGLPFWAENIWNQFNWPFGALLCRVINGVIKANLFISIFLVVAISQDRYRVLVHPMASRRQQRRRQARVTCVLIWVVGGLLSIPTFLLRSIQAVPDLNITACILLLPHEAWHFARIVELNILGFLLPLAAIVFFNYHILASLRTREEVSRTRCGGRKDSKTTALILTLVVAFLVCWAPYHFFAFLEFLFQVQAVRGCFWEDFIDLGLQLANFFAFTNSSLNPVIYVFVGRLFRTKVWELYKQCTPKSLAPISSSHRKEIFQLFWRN
# [8] = target: Neurotensin receptor type 1 (Homo sapiens, UniProt P30989)
# D(4) dopamine receptor = target: T5, D(4) dopamine receptor (Homo sapiens, UniProt P21917)
# T5 sequence (P21917 whole entry): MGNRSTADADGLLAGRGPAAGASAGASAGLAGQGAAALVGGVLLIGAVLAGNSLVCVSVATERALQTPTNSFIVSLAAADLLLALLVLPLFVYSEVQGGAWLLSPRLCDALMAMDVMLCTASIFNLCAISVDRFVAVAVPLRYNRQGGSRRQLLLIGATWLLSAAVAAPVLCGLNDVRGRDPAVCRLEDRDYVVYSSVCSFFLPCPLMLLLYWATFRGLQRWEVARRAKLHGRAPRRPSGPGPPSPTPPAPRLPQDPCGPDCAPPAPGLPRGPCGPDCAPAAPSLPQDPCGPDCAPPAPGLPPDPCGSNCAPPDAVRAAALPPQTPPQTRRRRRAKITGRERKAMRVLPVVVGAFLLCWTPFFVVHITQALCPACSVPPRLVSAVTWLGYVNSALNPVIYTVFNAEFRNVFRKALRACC
# [9] = target: T6, Alpha-1A adrenergic receptor (Homo sapiens, UniProt P35348)
# T6 sequence (P35348 whole entry): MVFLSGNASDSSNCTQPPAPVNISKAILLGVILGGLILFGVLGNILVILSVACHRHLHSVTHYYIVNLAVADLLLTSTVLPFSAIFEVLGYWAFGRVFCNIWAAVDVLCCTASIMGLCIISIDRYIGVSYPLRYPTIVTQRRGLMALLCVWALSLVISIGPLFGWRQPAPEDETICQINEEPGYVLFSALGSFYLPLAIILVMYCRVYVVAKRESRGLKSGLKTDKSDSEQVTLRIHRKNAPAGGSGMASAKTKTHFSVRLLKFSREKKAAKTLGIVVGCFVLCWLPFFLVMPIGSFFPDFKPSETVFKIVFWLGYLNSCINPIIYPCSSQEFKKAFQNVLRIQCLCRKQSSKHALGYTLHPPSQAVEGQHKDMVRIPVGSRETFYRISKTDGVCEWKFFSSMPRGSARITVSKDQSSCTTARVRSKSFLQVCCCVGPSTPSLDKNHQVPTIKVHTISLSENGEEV
# Further: assay procedure not described here.
# T1 sequence (P35367 whole entry): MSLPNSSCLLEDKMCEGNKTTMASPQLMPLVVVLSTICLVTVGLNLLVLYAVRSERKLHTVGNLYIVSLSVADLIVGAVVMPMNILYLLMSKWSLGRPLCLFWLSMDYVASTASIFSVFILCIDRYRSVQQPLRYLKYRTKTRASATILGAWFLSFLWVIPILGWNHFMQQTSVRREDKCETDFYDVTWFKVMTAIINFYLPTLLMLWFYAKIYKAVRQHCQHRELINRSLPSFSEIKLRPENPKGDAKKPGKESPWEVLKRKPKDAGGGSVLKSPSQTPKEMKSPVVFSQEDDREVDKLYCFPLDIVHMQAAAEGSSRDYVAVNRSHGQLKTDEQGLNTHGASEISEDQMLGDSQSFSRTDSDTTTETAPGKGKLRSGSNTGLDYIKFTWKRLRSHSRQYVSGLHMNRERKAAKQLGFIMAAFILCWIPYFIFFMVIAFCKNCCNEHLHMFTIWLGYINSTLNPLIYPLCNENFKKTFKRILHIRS
# 5-hydroxytryptamine receptor 2A, sequence (P28223 whole entry): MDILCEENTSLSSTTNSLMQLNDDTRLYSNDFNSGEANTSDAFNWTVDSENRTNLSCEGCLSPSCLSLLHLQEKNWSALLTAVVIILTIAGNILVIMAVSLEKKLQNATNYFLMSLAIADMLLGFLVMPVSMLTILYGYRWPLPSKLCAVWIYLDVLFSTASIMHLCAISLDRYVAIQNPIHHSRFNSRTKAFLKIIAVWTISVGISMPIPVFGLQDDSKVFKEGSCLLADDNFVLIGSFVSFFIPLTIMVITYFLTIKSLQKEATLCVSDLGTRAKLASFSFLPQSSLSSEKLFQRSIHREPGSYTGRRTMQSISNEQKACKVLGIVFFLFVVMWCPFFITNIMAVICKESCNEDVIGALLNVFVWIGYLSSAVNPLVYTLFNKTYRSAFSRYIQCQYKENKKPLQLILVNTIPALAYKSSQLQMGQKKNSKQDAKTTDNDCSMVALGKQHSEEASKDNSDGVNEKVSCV
# Neurotensin receptor type 1, sequence (P30989 whole entry): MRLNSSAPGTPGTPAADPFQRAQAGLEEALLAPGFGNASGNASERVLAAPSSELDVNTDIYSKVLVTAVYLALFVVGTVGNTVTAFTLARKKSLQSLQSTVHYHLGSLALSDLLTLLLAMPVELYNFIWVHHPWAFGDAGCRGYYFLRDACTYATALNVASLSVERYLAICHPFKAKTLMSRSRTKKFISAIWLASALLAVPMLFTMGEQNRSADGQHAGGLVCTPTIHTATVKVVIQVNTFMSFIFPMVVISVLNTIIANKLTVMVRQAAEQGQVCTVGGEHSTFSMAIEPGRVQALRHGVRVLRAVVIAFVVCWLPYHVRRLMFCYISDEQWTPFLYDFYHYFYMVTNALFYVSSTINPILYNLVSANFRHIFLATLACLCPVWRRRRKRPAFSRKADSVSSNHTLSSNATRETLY
# Gamma-aminobutyric acid receptor subunit alpha-1/alpha-2/beta-2/gamma-2, sequence (P14867 whole entry): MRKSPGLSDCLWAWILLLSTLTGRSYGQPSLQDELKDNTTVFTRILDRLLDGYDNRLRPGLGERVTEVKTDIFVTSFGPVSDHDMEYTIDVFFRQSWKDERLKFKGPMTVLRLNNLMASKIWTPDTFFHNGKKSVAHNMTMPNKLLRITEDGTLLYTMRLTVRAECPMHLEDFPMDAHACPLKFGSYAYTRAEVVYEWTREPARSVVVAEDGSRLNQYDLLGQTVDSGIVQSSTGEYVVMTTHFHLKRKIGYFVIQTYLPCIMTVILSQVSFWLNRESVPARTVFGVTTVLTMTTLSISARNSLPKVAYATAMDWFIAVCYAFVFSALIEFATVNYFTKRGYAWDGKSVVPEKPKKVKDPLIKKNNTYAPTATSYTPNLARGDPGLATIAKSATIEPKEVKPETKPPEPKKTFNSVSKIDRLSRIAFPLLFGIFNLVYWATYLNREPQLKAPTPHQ
# Gamma-aminobutyric acid receptor subunit alpha-1/alpha-2/beta-2/gamma-2, sequence (P47870 whole entry): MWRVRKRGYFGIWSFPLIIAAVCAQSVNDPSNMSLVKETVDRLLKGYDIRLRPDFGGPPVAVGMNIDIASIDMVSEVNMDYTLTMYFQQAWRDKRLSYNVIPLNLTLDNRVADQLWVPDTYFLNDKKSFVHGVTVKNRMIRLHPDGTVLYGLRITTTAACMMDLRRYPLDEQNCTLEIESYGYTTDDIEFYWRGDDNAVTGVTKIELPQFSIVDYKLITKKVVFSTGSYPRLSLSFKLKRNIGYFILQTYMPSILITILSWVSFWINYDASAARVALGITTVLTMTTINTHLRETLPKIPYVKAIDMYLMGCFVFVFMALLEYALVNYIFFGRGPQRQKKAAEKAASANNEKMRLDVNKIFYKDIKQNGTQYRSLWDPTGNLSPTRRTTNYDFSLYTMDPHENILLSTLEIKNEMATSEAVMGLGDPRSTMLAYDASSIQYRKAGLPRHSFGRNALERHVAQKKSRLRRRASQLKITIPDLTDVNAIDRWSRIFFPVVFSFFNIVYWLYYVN
# Gamma-aminobutyric acid receptor subunit alpha-1/alpha-2/beta-2/gamma-2, sequence (P18507 whole entry): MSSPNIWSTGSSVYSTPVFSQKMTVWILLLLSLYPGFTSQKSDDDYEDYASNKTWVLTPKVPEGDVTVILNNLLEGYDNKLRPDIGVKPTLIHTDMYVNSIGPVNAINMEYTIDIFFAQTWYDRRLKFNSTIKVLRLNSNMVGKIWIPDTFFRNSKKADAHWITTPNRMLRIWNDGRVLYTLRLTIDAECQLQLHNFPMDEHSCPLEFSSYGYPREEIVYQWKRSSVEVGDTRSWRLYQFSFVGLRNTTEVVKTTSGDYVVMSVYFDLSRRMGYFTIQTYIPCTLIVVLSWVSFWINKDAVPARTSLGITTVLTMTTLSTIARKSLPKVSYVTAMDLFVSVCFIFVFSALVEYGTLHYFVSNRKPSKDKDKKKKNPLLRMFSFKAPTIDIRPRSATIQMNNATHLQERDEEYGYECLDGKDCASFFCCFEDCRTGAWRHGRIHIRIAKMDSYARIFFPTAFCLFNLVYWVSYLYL
# Gamma-aminobutyric acid receptor subunit alpha-1/alpha-2/beta-2/gamma-2, sequence (P47869 whole entry): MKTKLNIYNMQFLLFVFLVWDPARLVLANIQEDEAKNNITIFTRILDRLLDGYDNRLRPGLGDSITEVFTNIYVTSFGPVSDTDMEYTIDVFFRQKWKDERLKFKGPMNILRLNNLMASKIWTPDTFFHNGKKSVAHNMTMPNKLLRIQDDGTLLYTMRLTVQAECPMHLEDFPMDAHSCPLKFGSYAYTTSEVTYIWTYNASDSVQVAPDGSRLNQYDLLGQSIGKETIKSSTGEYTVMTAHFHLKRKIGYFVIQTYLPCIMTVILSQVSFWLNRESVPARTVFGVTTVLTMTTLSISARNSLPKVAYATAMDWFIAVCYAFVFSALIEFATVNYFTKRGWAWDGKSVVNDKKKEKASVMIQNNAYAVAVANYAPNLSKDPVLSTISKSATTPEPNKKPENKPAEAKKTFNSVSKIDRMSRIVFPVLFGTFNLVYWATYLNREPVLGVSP
SMILES,AC50 [1] [µM],AC50 (Histamine H1 receptor [2]) [µM],AC50 (Histamine H1 receptor [3]) [µM],AC50 [4] [µM],AC50 [6] [µM],AC50 [7] [µM],also measured
Cc1ccc2c(-c3ccccc3)nc(=O)n(C(C)C)c2c1 [PROQUAZONE],> 30,> 30,> 30,,,,
CN1CCN(c2c(F)cc3c(=O)c(C(=O)O)cn4c3c2SCC4)CC1 [RUFLOXACIN],> 30,> 30,> 30,,,,
CC(=O)c1ccc2c(c1)N(CCCN1CCC(CCO)CC1)c1ccccc1S2 [PIPERACETAZINE],,,,0.0421,,,AC50 [5]: 0.012 µM
CCCN(CC)C(CC)C(=O)Nc1c(C)cccc1C (stereo not drawn) [ETIDOCAINE],,,,> 30,,,
CCN(CC)CCOC(=O)c1ccc(N)cc1Cl [CHLOROPROCAINE],> 30,,,,> 30,> 30,
CN1c2ccccc2C(NCCCCCCC(=O)O)c2ccc(Cl)cc2S1(=O)=O (stereo not drawn) [TIANEPTINE],> 30,> 30,> 30,,,,
Nc1nc2c(c(=O)[nH]1)N(C=O)C(CNc1ccc(C(=O)N[C@@H](CCC(=O)O)C(=O)O)cc1)CN2 (stereo partly drawn) [LEUCOVORIN],> 30,,,,> 30,> 30,
CS(=O)(=O)OCCCCOS(C)(=O)=O [BUSULFAN],> 30,,,,> 30,> 30,
Cc1ccc(=O)n(-c2ccccc2)c1 [PIRFENIDONE],> 30,> 30,> 30,,> 30,> 30,AC50 [5]: > 10 µM
O=C(O)c1ccccc1Nc1cccc(C(F)(F)F)c1 [FLUFENAMIC ACID],,,,> 10,,,AC50 (B1 bradykinin receptor): > 30 µM; AC50 [8]: > 30 µM; AC50 [5]: 0.0771 µM
COc1ccc(C(CN(C)C)C2(O)CCCCC2)cc1 (stereo not drawn) [VENLAFAXINE],,,,> 10,,,
CC(C)(C)NCC(O)c1cc(Cl)c(N)c(Cl)c1 (stereo not drawn) [CLENBUTEROL],> 30,,,,,,
CCCC[C@H](C)C[C@H](O)/C=C/[C@H]1[C@H](O)CC(=O)[C@@H]1CCCC/C=C/C(=O)O [LIMAPROST],> 30,> 30,> 30,,> 30,> 30,
Clc1ccc2c(c1)C(c1ccccc1)=NCc1nncn1-2 [ESTAZOLAM],,,,> 10,,,
N[C@H](Cc1cc(I)c(Oc2cc(I)c(O)c(I)c2)c(I)c1)C(=O)O [DEXTROTHYROXINE],,,,> 10,,,AC50 (B1 bradykinin receptor): > 30 µM; AC50 [8]: 4.8 µM; AC50 [5]: > 10 µM
CCOC(=O)Nc1ccc2c(c1)N(C(=O)CCN1CCOCC1)c1ccccc1S2 [MORICIZINE],,> 30,> 30,,> 30,> 30,
CC(C)CC(N(C)C)C1(c2ccc(Cl)cc2)CCC1 (stereo not drawn) [SIBUTRAMINE],,,,> 10,,,AC50 (B1 bradykinin receptor): > 30 µM; AC50 (D(4) dopamine receptor): > 10 µM; AC50 [8]: > 30 µM; AC50 [9]: > 10 µM
CCCCC1(CC)C(=O)NC(=O)NC1=O [BUTETHAL],> 30,,,,> 30,> 30,

SMILES,AC50 [1] [µM],AC50 (Histamine H1 receptor [2]) [µM],AC50 (Histamine H1 receptor [3]) [µM],AC50 [4] [µM],AC50 [6] [µM],AC50 [7] [µM],also measured
Nc1ccn([C@@H]2O[C@H](CO)[C@@H](O)C2(F)F)c(=O)n1 [GEMCITABINE],,,,> 10,,,
COc1cc2c(Nc3ccc(Br)cc3F)ncnc2cc1OCC1CCN(C)CC1 [VANDETANIB],> 30,,,,> 30,> 30,
Cc1ccc(NC(=O)C2(c3ccc4c(c3)OC(F)(F)O4)CC2)nc1-c1cccc(C(=O)O)c1 [LUMACAFTOR],,> 30,> 30,,> 30,> 30,
O=C(O)c1ccccc1OP(=O)(O)O [FOSFOSAL],> 30,,,,> 30,> 30,
CC#CCn1c(N2CCC[C@@H](N)C2)nc2c1c(=O)n(Cc1nc(C)c3ccccc3n1)c(=O)n2C [LINAGLIPTIN],,,,> 10,,,AC50 [5]: > 10 µM
CCCNC(C)C(=O)Nc1ccccc1C (stereo not drawn) [PRILOCAINE],> 30,,,,> 30,> 30,
COCCOC(=O)C1=C(C)NC(C)=C(C(=O)OC/C=C/c2ccccc2)C1c1cccc([N+](=O)[O-])c1 (stereo not drawn) [CILNIDIPINE],> 30,> 30,> 30,,,,
CCN(CC)C(=O)C1CN2CCc3cc(OC)c(OC)cc3C2CC1OC(C)=O (stereo not drawn) [BENZQUINAMIDE],> 30,> 30,> 30,,> 30,> 30,AC50 [5]: 0.588 µM
CO[C@@]1(NC(=O)Cc2cccs2)C(=O)N2C(C(=O)O)=C(COC(N)=O)CS[C@@H]21 [CEFOXITIN],> 30,,,,> 30,11,
COc1cccc2c1C(=O)c1c(O)c3c(c(O)c1C2=O)C[C@@](O)(C(C)=O)C[C@@H]3O[C@H]1C[C@H](N)[C@H](O)[C@H](C)O1 [DAUNORUBICIN],,,,,> 30,> 10,
CCn1cc(C(=O)O)c(=O)c2cc(F)c(N3CCN(C)CC3)cc21 [PEFLOXACIN],> 30,,,,> 30,> 30,
NC(=O)CCC/N=C(\c1ccc(Cl)cc1)c1cc(F)ccc1O [PROGABIDE],,,,,,,AC50 [5]: > 10 µM
CCCC(C)(COC(N)=O)COC(=O)NC(C)C (stereo not drawn) [CARISOPRODOL],,> 30,> 30,> 10,,,AC50 (B1 bradykinin receptor): > 30 µM; AC50 (D(4) dopamine receptor): > 10 µM; AC50 [8]: > 30 µM; AC50 [9]: > 10 µM; AC50 [5]: > 10 µM
C[n+]1ccccc1/C=N/O [PRALIDOXIME],> 30,,,,,,
CC1(C)C(/C=C/C=C/C=C/C=C2\N(CCCCS(=O)(=O)O)c3ccc4ccccc4c3C2(C)C)=[N+](CCCCS(=O)(=O)[O-])c2ccc3ccccc3c21 [INDOCYANINE GREEN ACID FORM],> 30,> 30,> 30,,,,
CC(=O)OCC(CCn1cnc2cnc(N)nc21)COC(C)=O [FAMCICLOVIR],,,,> 10,,,AC50 (B1 bradykinin receptor): > 30 µM; AC50 (D(4) dopamine receptor): > 10 µM; AC50 [8]: > 30 µM; AC50 [9]: > 10 µM
C=CC1=C(C(=O)O)N2C(=O)[C@@H](NC(=O)/C(=N\OCC(=O)O)c3csc(N)n3)[C@H]2SC1 [CEFIXIME],,,,,> 30,> 30,
